ChEMBL document CHEMBL1130203, “Novel fluoroquinolone antibacterial agents containing oxime-substituted (aminomethyl)pyrrolidines: synthesis and antibacterial activity of 7-(4-(aminomethyl)-3-(methoxyimino)pyrrolidin-1-yl)-1-cyclopropyl-6- fluoro-4-oxo-1,4-dihydro[1,8]naphthyridine-3-carboxylic acid (LB20304)” (J Med Chem, 1997)
Values after ≈ are worked out from the molar mass of the structure shown.

Assays:
[1] = species on record: Mus musculus; test: 50% Effective dose against systemic Infection in mouse by Staphylococcus aureus giorgio; type: functional
[2] = species on record: Mus musculus; test: Minimum inhibitory concentration (MIC) against systemic infection in mouse by Streptococcus pneumoniae 77A; type: functional
[3] = Area under curve was determined in Rats after peroral administration; type: ADME, organism-based; conditions: rat, in vivo, po
[4] = tested on: Escherichia coli; test: Minimum inhibitory concentration (MIC) against Escherichia coli TEM9 2639E; type: functional
[5] = tested on: Acinetobacter calcoaceticus; test: Minimum inhibitory concentration (MIC) against Acinetobacter calcoaceticus 15473; type: functional
[6] = tested on: Escherichia coli; test: Minimum inhibitory concentration (MIC) against Escherichia coli 851E
[7] = Area under curve was determined in Dogs after peroral administration; type: ADME, organism-based, Canis lupus familiaris; conditions: dog, in vivo, po
[8] = Half-life in Dogs was determined after Peroral administration; type: ADME, organism-based, Canis lupus familiaris; conditions: dog, in vivo, po
[9] = tested on: Enterococcus faecalis; test: Minimum inhibitory concentration (MIC) against Streptococcus faecalis 29212; type: functional
[10] = tested on: Klebsiella aerogenes; test: Minimum inhibitory concentration (MIC) against Klebsiella aerogenes 1082E; type: functional
[11] = Half-life in Rats was determined after Peroral administration; type: ADME, organism-based; conditions: rat, in vivo, po
[12] = Tmax was determined in dogs after Peroral administration; type: ADME, organism-based, Canis lupus familiaris; conditions: dog, in vivo, po
[13] = species on record: Mus musculus; test: 50% Effective dose against systemic Infection in mouse by Pseudomonas aeruginosa 1912E; type: functional
[14] = species on record: Mus musculus; test: 50% Effective dose against systemic Infection in mouse by Streptococcus pneumoniae 77A; type: functional
[15] = Oral bioavailability in rat; type: ADME, organism-based; conditions: in vivo
[16] = tested on: Staphylococcus epidermidis; test: Minimum inhibitory concentration (MIC) against Staphylococcus epidermidis 178; type: functional
[17] = Tmax was determined in Rats after Peroral administration; type: ADME, organism-based; conditions: rat, in vivo, po
[18] = tested on: Staphylococcus aureus; test: Minimum inhibitory concentration (MIC) against Staphylococcus aureus 241; type: functional
[19] = maximum Plasma concentration in Rats was determined after Peroral administration; type: ADME, organism-based; parameters: route oral; conditions: rat, po
[20] = species on record: Mus musculus; test: 50% Effective dose against systemic Infection in mouse by Escherichia coli 851E; type: functional
[21] = Oral Bioavailability was determined in Dogs after Peroral administration; type: ADME, organism-based, Canis lupus familiaris; conditions: dog, in vivo
[22] = tested on: Pseudomonas aeruginosa; test: Minimum inhibitory concentration (MIC) against Pseudomonas aeruginosa 1912E
[23] = species on record: Mus musculus; test: Minimum inhibitory concentration (MIC) against systemic infection in mouse by Staphylococcus aureus giorgio; type: functional
[24] = tested on: Pseudomonas aeruginosa; test: Minimum inhibitory concentration (MIC) against Pseudomonas aeruginosa 1912E; type: functional
[25] = maximum Plasma concentration in Dog was determined after Peroral administration; type: ADME, organism-based, Canis lupus familiaris; parameters: route oral; conditions: po

## CO/N=C1\CN(c2nc3c(cc2F)c(=O)c(C(=O)O)cn3C2CC2)CC1CN (stereo in doubt; 20) [GEMIFLOXACIN]
[1]
  ED50: 1.17 mg/kg
[2]
  MIC: 0.016 µg/mL (≈ 0.0411 µM)
[3]
  AUC: 8500 ng·h/mL
[4]
  MIC: 0.031 µg/mL (≈ 0.0796 µM)
[5]
  MIC: 0.063 µg/mL (≈ 0.162 µM)
[6]
  MIC: < 0.008 µg/mL
[7]
  AUC: 7550 ng·h/mL
[8]
  half-life: 5.12 h
[9]
  MIC: 0.063 µg/mL (≈ 0.162 µM)
[10]
  MIC: 0.031 µg/mL (≈ 0.0796 µM)
[11]
  half-life: 2.33 h
[12]
  Tmax: 1.13 h
[13]
  ED50: 2.08 mg/kg
[14]
  ED50: 7.64 mg/kg
[15]
  bioavailability: 95.3%
[16]
  MIC: 4 µg/mL (≈ 10.3 µM)
[17]
  Tmax: 0.33 h
[18]
  MIC: 4 µg/mL (≈ 10.3 µM)
[19]
  Cmax: 2440 ng/mL
[20]
  ED50: 0.47 mg/kg
[21]
  bioavailability: 71%
[22]
  MIC: 0.25 µg/mL (≈ 0.642 µM)
[23]
  MIC: < 0.008 µg/mL
[24]
  MIC: 0.25 µg/mL (≈ 0.642 µM)
[25]
  Cmax: 1340 ng/mL
